The IC50 is the concentration that inhibits the measured activity by half. Usually Ki stands for a measure of affinity in units of concentration, obtained from inhibition or displacement.

Each structure is given as a SMILES string.

Among the data in ChEMBL document CHEMBL1909046, “DrugMatrix in vitro pharmacology data” are IC50 and Ki values, retold here.

The target of data set [1] is T1, Alpha-1B adrenergic receptor (Rattus norvegicus, UniProt P15823).
T1 sequence (P15823 whole entry): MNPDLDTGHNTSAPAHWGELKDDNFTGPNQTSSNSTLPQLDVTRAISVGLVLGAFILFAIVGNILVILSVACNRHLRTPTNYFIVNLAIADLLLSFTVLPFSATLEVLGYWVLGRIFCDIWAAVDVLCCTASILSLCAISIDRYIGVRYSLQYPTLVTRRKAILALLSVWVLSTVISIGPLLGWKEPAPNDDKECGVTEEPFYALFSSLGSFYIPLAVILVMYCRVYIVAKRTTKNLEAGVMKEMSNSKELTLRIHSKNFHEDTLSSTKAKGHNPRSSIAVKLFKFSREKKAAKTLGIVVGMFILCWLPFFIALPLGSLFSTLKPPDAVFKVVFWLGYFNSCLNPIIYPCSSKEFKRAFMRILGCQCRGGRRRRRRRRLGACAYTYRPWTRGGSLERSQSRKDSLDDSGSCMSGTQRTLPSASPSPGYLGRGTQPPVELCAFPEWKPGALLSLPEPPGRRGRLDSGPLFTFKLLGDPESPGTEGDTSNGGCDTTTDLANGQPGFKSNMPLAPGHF
In words: DRUGMATRIX: Alpha-1B adrenergic receptor radioligand binding (ligand: prazosin). The class given is cell membranes, Wistar, Liver, Membrane. The following applies: Not Active = under 50% inhibition at 10 µM; for Ki: read-out: Ki.

Data set [2] has as its target Platelet-activating factor receptor (Homo sapiens, UniProt P25105). The class given is tissue-based. Further: in other assays of this panel Not Active means under 50% inhibition at 10 µM.
A short description of data set [3]: DRUGMATRIX: Potassium Channel [KATP] radioligand binding (ligand: [3H] Glyburide). The class given is cell membranes, Membrane. The conditions noted are these: hit-t15; Not Active = under 50% inhibition at 10 µM.
In data set [4] the target is Matrix metalloproteinase-9 (Homo sapiens, UniProt P14780). In kind it is cell-based.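 Further: inhibition of isolated MMP-9 enzyme activity toward a synthetic peptide substrate, from the DrugMatrix protease screening panel; in other assays of this panel Not Active means under 50% inhibition at 10 µM.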
A further data set addresses T2, Adenosine receptor A1 (Homo sapiens, UniProt P30542).
T2 sequence (P30542 whole entry): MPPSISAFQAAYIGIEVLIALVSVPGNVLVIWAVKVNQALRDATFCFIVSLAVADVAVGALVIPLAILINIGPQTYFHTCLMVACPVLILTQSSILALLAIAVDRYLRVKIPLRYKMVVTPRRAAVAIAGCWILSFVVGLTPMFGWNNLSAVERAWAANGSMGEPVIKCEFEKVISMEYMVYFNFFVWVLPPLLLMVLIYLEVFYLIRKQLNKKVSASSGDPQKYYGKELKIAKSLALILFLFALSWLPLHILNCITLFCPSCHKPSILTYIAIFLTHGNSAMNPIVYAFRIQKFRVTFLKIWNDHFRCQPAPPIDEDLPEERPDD
In kind it is cell membranes, CHO, Membrane. The conditions noted are these: cho.

For another data set, the target named is Cytochrome P450 2C9 (Homo sapiens, UniProt P11712). The following applies: bti-tn-5b1-4. Further: in other assays of this panel Not Active means under 50% inhibition at 10 µM.
Chain of Cytochrome P450 2C9 (P11712 whole entry): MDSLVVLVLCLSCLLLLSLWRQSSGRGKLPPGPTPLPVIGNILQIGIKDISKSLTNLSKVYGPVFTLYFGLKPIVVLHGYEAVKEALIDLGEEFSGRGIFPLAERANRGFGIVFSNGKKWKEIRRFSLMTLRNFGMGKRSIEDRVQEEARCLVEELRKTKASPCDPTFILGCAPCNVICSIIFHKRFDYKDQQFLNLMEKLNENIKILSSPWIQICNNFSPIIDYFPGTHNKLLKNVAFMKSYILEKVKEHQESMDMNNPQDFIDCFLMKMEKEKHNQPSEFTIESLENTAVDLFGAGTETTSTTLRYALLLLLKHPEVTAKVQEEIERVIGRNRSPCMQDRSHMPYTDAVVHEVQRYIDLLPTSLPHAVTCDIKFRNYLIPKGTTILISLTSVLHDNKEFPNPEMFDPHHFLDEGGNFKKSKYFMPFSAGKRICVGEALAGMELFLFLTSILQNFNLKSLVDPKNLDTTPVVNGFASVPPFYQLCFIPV

Chain of Platelet-activating factor receptor (P25105 whole entry): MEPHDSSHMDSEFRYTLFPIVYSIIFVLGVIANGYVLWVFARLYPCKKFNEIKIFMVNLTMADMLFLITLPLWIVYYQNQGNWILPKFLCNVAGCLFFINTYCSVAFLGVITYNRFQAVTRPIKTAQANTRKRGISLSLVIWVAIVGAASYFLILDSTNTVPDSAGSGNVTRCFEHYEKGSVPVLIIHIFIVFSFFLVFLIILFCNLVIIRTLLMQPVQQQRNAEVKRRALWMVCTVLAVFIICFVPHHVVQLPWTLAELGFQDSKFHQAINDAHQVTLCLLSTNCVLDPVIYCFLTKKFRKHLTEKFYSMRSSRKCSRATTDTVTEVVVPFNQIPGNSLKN
Chain of Matrix metalloproteinase-9 (P14780 whole entry): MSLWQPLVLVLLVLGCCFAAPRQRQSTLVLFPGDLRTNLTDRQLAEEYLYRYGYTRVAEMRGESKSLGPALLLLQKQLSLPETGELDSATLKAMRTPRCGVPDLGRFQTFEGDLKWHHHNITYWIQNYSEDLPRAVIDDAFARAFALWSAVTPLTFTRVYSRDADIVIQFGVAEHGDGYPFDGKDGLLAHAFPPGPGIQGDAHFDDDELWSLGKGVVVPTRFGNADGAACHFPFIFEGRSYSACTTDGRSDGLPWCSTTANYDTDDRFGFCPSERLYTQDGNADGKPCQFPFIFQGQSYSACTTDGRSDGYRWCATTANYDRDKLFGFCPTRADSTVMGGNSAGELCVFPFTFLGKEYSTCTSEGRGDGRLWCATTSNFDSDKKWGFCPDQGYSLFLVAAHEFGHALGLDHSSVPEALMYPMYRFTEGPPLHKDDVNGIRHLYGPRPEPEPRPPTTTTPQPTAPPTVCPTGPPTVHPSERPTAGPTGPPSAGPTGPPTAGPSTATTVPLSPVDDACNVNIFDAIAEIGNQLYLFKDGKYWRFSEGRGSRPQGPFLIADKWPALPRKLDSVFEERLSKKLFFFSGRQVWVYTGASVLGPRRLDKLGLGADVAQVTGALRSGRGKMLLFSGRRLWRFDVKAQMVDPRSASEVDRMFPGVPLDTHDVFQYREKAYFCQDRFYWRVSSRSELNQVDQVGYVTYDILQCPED

For the molecule `O=C(O)CCCc1cccs1`, the IC50 entry (in data set [1]; in data set [2]; in data set [3]; in data set [4]; on Adenosine receptor A1; against Cytochrome P450 2C9) was “Not Active” in each case. The inhibition constant Ki entry (in data set [3]; at Cytochrome P450 2C9) was “Not Active” each time.

In the case of `COc1ccccc1N`, the IC50 entry (in data set [1]; in data set [2]; in data set [3]; in data set [4]; on Adenosine receptor A1; on Cytochrome P450 2C9) was “Not Active” each time. In addition, the Ki result (in data set [3]; at Cytochrome P450 2C9) was “Not Active” throughout.

In the case of `Cc1c(O)cccc1C(=O)N[C@@H](CSc1ccccc1)[C@H](O)CN1C[C@H]2CCCC[C@H]2C[C@H]1C(=O)NC(C)(C)C`, the concentration for half-maximal inhibition (IC50) result (in data set [1]; in data set [2]; in data set [3]; in data set [4]; against Adenosine receptor A1; against Cytochrome P450 2C9) was “Not Active” throughout. Also, the Ki result (in data set [3]; on Cytochrome P450 2C9) was “Not Active” throughout.

Regarding `CC(O)COC[C@H]1O[C@@H]2O[C@H]3[C@H](O)[C@@H](O)[C@@H](O[C@H]4[C@H](O)[C@@H](O)[C@@H](O[C@H]5[C@H](O)[C@@H](O)[C@@H](O[C@H]6[C@H](O)[C@@H](O)[C@@H](O[C@H]7[C@H](O)[C@@H](O)[C@@H](O[C@H]8[C@H](O)[C@@H](O)[C@@H](O[C@H]1[C@H](O)[C@H]2O)O[C@@H]8COCC(C)O)O[C@@H]7COCC(C)O)O[C@@H]6COCC(C)O)O[C@@H]5COCC(C)O)O[C@@H]4COCC(C)O)O[C@@H]3COCC(C)O` (stereo partly drawn) [2-HYDROXYPROPYL-BETA-CYCLODEXTRIN], the IC50 result (in data set [1]; in data set [2]; in data set [3]; in data set [4]; against Adenosine receptor A1; against Cytochrome P450 2C9) was “Not Active” each time. In addition, the Ki result (in data set [3]; on Cytochrome P450 2C9) was “Not Active” throughout.

Take `NC(=O)c1cccc(N)c1` [3-AMINOBENZAMIDE]: the half-inhibitory concentration (IC50) entry (in data set [1]; in data set [2]; in data set [3]; in data set [4]; against Adenosine receptor A1; against Cytochrome P450 2C9) was “Not Active” throughout. Also, the inhibitory constant (Ki) entry (in data set [3]; on Cytochrome P450 2C9) was “Not Active” in each case.

For the molecule `C[C@H]1O[C@H](O[C@H]2[C@H](O)[C@@H](O)[C@@H](O[C@H]3[C@H](O)[C@@H](O)C(O)O[C@@H]3CO)O[C@@H]2CO)[C@H](O)[C@@H](O)[C@@H]1N[C@H]1C=C(CO)[C@@H](O)[C@H](O)[C@H]1O` (some centres not stated) [ACARBOSE], the 50% inhibitory concentration (IC50) entry (in data set [1]; in data set [2]; in data set [3]; in data set [4]; against Adenosine receptor A1; against Cytochrome P450 2C9) was “Not Active” in each case. Also, the Ki result (in data set [3]; at Cytochrome P450 2C9) was “Not Active” in each case.

As to `CC[C@H]1[C@@H]2C[C@H]3[C@@H]4N(C)c5ccccc5[C@]45C[C@@H]([C@@H]2[C@H]5O)N3[C@@H]1O` [AJMALINE], the IC50 entry (in data set [1]; in data set [2]; in data set [3]; in data set [4]; against Adenosine receptor A1; against Cytochrome P450 2C9) was “Not Active” in each case. Besides, the Ki result (in data set [3]; at Cytochrome P450 2C9) was “Not Active” each time.

With `NCCCNCCSP(=O)(O)O` [AMIFOSTINE], the IC50 result (in data set [1]; in data set [2]; in data set [3]; in data set [4]; on Adenosine receptor A1; on Cytochrome P450 2C9) was “Not Active” each time. The Ki entry (in data set [3]; on Cytochrome P450 2C9) was “Not Active” in each case.

In the case of `CN(C)CCC=C1c2ccccc2CCc2ccccc21` [AMITRIPTYLINE], the concentration for half-maximal inhibition (IC50) in data set [1] (read-out: IC50) is 76 nM; in data set [2] it was “Not Active”; in data set [3], “Not Active”; in data set [4] it was “Not Active”; against Adenosine receptor A1 it was “Not Active”; at Cytochrome P450 2C9, “Not Active”. Also, the Ki is 42 nM in data set [1], “Not Active” in data set [3] and “Not Active” on Cytochrome P450 2C9.

As to `CC(=O)Oc1ccccc1C(=O)O` [ASPIRIN], the IC50 result (in data set [1]; in data set [2]; in data set [3]; in data set [4]; against Adenosine receptor A1; at Cytochrome P450 2C9) was “Not Active” in each case. In addition, the Ki result (in data set [3]; on Cytochrome P450 2C9) was “Not Active” throughout.

As for `CC(=O)OC[C@H]1O[C@@H](n2ncc(=O)[nH]c2=O)[C@H](OC(C)=O)[C@@H]1OC(C)=O` [AZARIBINE], the half-maximal inhibitory concentration (IC50) result (in data set [1]; in data set [2]; in data set [3]; in data set [4]; against Adenosine receptor A1; on Cytochrome P450 2C9) was “Not Active” each time. In addition, the Ki entry (in data set [3]; at Cytochrome P450 2C9) was “Not Active” each time.

`C[C@H]1[C@H](NC(=O)/C(=N\OC(C)(C)C(=O)O)c2csc(N)n2)C(=O)N1S(=O)(=O)O` [AZTREONAM]: the IC50 entry (in data set [1]; in data set [2]; in data set [3]; in data set [4]; against Adenosine receptor A1; against Cytochrome P450 2C9) was “Not Active” in each case. The Ki entry (in data set [3]; at Cytochrome P450 2C9) was “Not Active” each time.

`O=C(O)CCNC(=O)c1ccc(/N=N/c2ccc(O)c(C(=O)O)c2)cc1` [BALSALAZIDE]: the half-inhibitory concentration (IC50) entry (in data set [1]; in data set [2]; in data set [3]; in data set [4]; at Adenosine receptor A1; on Cytochrome P450 2C9) was “Not Active” each time. Besides, the inhibition constant Ki result (in data set [3]; at Cytochrome P450 2C9) was “Not Active” each time.

Regarding `COc1cc(OC)c(C(=O)CCCN2CCCC2)c(OC)c1` [BUFLOMEDIL], the IC50 entry (in data set [1]; in data set [2]; in data set [3]; in data set [4]; at Adenosine receptor A1; against Cytochrome P450 2C9) was “Not Active” each time. For the same molecule, the Ki entry (in data set [3]; on Cytochrome P450 2C9) was “Not Active” throughout.

Take `ClC(Cl)(Cl)Cl` [CARBON TETRACHLORIDE]: the IC50 result (in data set [1]; in data set [2]; in data set [3]; in data set [4]; on Adenosine receptor A1; at Cytochrome P450 2C9) was “Not Active” each time. Moreover, the Ki entry (in data set [3]; on Cytochrome P450 2C9) was “Not Active” each time.

For `CCn1cc(C(=O)O)c(=O)c2cc(F)c(N3CCNC(C)C3)c(F)c21` (configuration not stated) [LOMEFLOXACIN], the IC50 entry (in data set [1]; in data set [2]; in data set [4]; against Adenosine receptor A1; against Cytochrome P450 2C9) was “Not Active” throughout. Further, the Ki entry at Cytochrome P450 2C9 is listed as “Not Active”.

Take `C[C@@H]1C/C=C/C=C/C=C/C=C/[C@H](O[C@@H]2O[C@H](C)[C@@H](O)[C@H](N)[C@@H]2O)C[C@@H]2O[C@](O)(C[C@@H](O)C[C@H]3O[C@@H]3/C=C/C(=O)O1)C[C@H](O)[C@H]2C(=O)O` [NATAMYCIN]: the IC50 entry (in data set [1]; in data set [2]; in data set [3]; in data set [4]; against Adenosine receptor A1) was “Not Active” in each case. Also, in data set [3], the Ki entry was “Not Active”.

`COc1ccc2c(c1OC)C(=O)O[C@@H]2[C@H]1c2c(cc3c(c2OC)OCO3)CCN1C` [NOSCAPINE]: the IC50 result (in data set [1]; in data set [2]; in data set [3]; in data set [4]; against Adenosine receptor A1) was “Not Active” throughout. For the same molecule, in data set [3], the Ki entry is recorded as “Not Active”.

With `N=C(N)c1ccc(OCCCCCOc2ccc(C(=N)N)cc2)cc1` [PENTAMIDINE], the IC50 in data set [1] (read-out: IC50) is 967 nM; in data set [2] it was “Not Active”; in data set [3], “Not Active”; in data set [4], “Not Active”; at Adenosine receptor A1, “Not Active”. The figures for the inhibition constant Ki in data set [1] and in data set [3] were 535 nM and “Not Active”, respectively.

Take `NNCCc1ccccc1` [PHENELZINE]: the IC50 result (in data set [1]; in data set [2]; in data set [3]; in data set [4]; on Adenosine receptor A1) was “Not Active” in each case. Further, the Ki result in data set [3] is given as “Not Active”.
